Laboratory results published in patent publication US5622983A, “N-substituted cycloalkyl and polycycloalkyl α-substituted Trp-Phe- and phenethylamine derivatives” (Warner-Lambert Company, priority 1995, dated 1997).
Where two headings read alike, the source gives them in different places.

Experiments:
Central CCK Receptors = target: T1, Central CCK Receptors (Mus musculus, UniProt P56481); assay: Binding to central CCK receptors (tritiated-pentagastrin displacement, cerebral cortical membranes)
T1 sequence (P56481 1-453): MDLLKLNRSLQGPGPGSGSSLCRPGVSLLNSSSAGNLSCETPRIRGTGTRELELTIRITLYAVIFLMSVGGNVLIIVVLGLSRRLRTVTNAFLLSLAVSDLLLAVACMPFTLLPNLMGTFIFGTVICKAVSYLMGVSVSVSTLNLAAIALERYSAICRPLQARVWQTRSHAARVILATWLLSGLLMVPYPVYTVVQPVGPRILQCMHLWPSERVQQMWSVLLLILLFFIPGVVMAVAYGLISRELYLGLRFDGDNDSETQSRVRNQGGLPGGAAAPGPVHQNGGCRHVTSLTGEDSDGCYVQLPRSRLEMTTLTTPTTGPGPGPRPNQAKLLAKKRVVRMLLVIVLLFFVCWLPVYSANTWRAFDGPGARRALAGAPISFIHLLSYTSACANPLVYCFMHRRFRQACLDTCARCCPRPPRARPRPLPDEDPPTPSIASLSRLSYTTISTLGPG
Description: The biological activity of compounds of the present invention was evaluated employing an initial screening test which rapidly and accurately measured the binding of the tested compound to known CCK receptor sites.
The resulting suspension was centrifuged, the supernate was discarded, and the pellet was washed by resuspension in Tris-HCl buffer followed by recentrifugation.
In saturation studies, cerebral cortical membranes were incubated at 23° C. for 120 minutes in a final volume of 500 μliter of Hepes incubation buffer (pH 7.2) together with 0.2-20 nM tritiated-pentagastrin (Amersham International, England).
In each case, the nonspecific binding was defined as that persisting in the presence of the unlabeled octapeptide CCK26-33 (10^-6 M).
Following incubation, radioactivity bound to membranes was separated from that free in solution by rapid filtration through Whatman GF/B filters and washed three times with 4 mL of ice cold Tris-HCl buffer.
The specific binding to CCK receptor sites was defined as the total bound tritiated-pentagastrin minus the amount of tritiated-pentagastrin bound in the presence of 10^-6 octapeptide, CCK26-33.
The inhibition constant (Ki) of the test compound was then calculated according to the Cheng-Prusoff equation: [formula] where [L] is the concentration of radiolabel and Ka is the equilibrium dissociation constant.

[1] = Palatable Diet Feeding assay; type: in vivo, rat; details: dose producing 50% of the maximum effect possible (zero food intake)
Description: In the Palatable Diet Feeding assay, adult male Hooded Lister rats weighing between 200-400 g were housed individually and trained to eat a palatable diet. This diet consisted of Nestles sweetened condensed milk, powdered rat food and rat water which when blended together set to a firm consistency. […] The intake of palatable diet was measured by weighing the food container before and after the 30-minute access period (limits of accuracy 0.1 g). Care was taken to collect and correct for any spillage of the diet. Rats had free access to pellet food and water except during the 30-minute test period.
After the training period, dose-response curves were constructed for CCK8 and several representative compounds of the present invention (n=8-10 rats per dose level).

[2] = read-out: Binding to Central CCK Receptors Ki, displacement of 2 nM tritiated-pentagastrin, mouse cerebral cortical membranes

Structure (SMILES) | Ki (Central CCK Receptors; [2]) | Ki (Central CCK Receptors) | Inhibition of Feeding on Rat Palatable Diet Assay I.P. MPE50 [1]
CC(Cc1c[nH]c2ccccc12)(NC(=O)OC12CC3CC(CC(C3)C1)C2)C(=O)NCCc1ccccc1 (racemic) [Example 1, (±)-Tricyclo[3.3.1^3,7]dec-1-yl [1-(1H-indol-3-ylmethyl)-1-methyl-2-oxo-2-[(2-phenylethyl)amino]ethyl]carbamate] | 1230 nM |  | 
CC(Cc1c[nH]c2ccccc12)(NC(=O)O[C@@H]1CCCC[C@H]1Cl)C(=O)NCCc1ccccc1 (mixture of isomers) [Example 2, (±)-Trans-2-chlorocyclohexyl [1-(1H-indol-3-ylmethyl)-1-methyl-2-oxo-2-[(2-phenylethyl)amino]ethyl]carbamate] |  | 3150 nM | 9.6 mg/kg
CC(Cc1c[nH]c2ccccc12)(NC(=O)O[C@@H]1CCCC[C@H]1Cl)C(=O)NC(CO)Cc1ccccc1 (mixture of isomers) [Example 3, (±)-Trans-2-chlorocyclohexyl [2-[[1-(hydroxymethyl)-2-phenyethyl]amino]-1-(1H-indol-3-ylmethyl)-1-methyl-2-oxoethyl]carbamate. (D-tryptophan residue; L-phenylalanine residue).] | 260 nM |  | 30.7 mg/kg
CC(Cc1c[nH]c2ccccc12)(NC(=O)OC1CC2CCC1(C)C2(C)C)C(=O)NCCc1ccccc1 (racemic) [Example 7, (±)-Endo-1,7,7-trimethylbicyclo[2.2.1]hept-2-yl-[1-(1H-indol-3-ylmethyl)-1-methyl-2-oxo-2-[(2-phenylethyl)amino]ethyl]-carbamate] | 760 nM |  | 
CC(Cc1c[nH]c2ccccc12)(NC(=O)OC1CC2CCC1(C)C2(C)C)C(=O)NCCc1ccccc1 (racemic) [Example 8, (±)-Exo-1,7,7-trimethylbicyclo[2.2.1]hept-2-yl-[1-(1H-indol-3-ylmethyl)-1-methyl-2-oxo-2-[(2-phenylethyl)amino]ethyl]-carbamate] | 840 nM |  | 
CC(Cc1c[nH]c2ccccc12)(NC(=O)OC1CC2CCC1C2)C(=O)NCCc1ccccc1 (racemic) [Example 9, (±)-Exo-bicyclo[2.2.1]hept-2-yl [1-(1H-indol-3-ylmethyl)-1-methyl-2-oxo-2-[(2-phenylethyl)amino]ethyl]carbamate] | 7500 nM |  | 
CC(Cc1c[nH]c2ccccc12)(NC(=O)OC1CC2CCC1C2)C(=O)NCCc1ccccc1 (racemic) [Example 10, (±)-Endo-bicyclo[2.2.1]hept-2-yl [1-(1H-indol-3-ylmethyl)-1-methyl-2-oxo-2-[(2-phenylethyl)amino]ethyl]carbamate] | 8800 nM |  | 
CC(Cc1c[nH]c2ccccc12)(NC(=O)O[C@@H]1CCCC[C@H]1Cl)C(=O)NC(CO)Cc1ccccc1 (mixture of isomers) [Example 14, (±)-trans-2-Chlorocyclohexyl-[2-[[1-(hydroxymethyl)-2-phenylethyl]amino]-1-(1H-indol-3ylmethyl)-1-methyl-2-oxoethyl]carbamate] | 10500 nM |  | 19.5 mg/kg
CC(Cc1c[nH]c2ccccc12)(NC(=O)OC1C2CC3CC(C2)CC1C3)C(=O)NCC(NC(=O)C1CC1C(=O)O)c1ccccc1 (racemic) [Example 32, 2-[[[2-[[3-(1H-indol-3-yl)-2-methyl-1-oxo-2-[[(tricyclo-[3.3.1.1^3,7]dec-2-yloxy)carbonyl]amino]propyl]amino]-1-phenylethyl]amino]carbonyl]cyclopropanecarboxylic acid (cyclopropane ring is trans-(±)othercentersare R)] | 5.1 nM |  | 
C[C@](Cc1c[nH]c2ccccc12)(NC(=O)CC12CC3CC(CC(C3)C1)C2)C(=O)N[C@H](CO)Cc1ccccc1 (relative stereo) [Example 5, [R-(R*,S*)]-N-[1-(hydroxymethyl)-2-phenylethyl]-α-methyl-α-[[tricyclo[3.3.1.1^3,7]dec-1-ylacetyl)-amino]-1H-indole-3-propanamide] | 2230 nM |  | 33.6 mg/kg
CC1CCCCC1OC(=O)NC(C)(Cc1c[nH]c2ccccc12)C(=O)NCC(NC(=O)CCC(=O)O)c1ccccc1 (single isomer, unassigned) [Example 40, Butanoic acid, 4-[[2-[[3-(1H-indol-3-yl)-2-methyl-2-[[[(2-methyl-1-cyclohexyl)oxy]carbonyl]amino]-1-oxopropyl]amino]-1-phenylethyl]amino]-4-oxo-[1R-[1α[R*(R*)]2β]]-((-)-isomer)] | 3.9 nM |  | 
CC1CCCCC1OC(=O)NC(C)(Cc1c[nH]c2ccccc12)C(=O)NCC(NC(=O)C=CC(=O)O)c1ccccc1 (single isomer, unassigned) [Example 41, 2-Butenoic acid, 4-[[2-[[3-(1H-indol-3-yl)-2-methyl-2-[[[(2-methyl-1-cyclohexyl)oxy]carbonyl]amino]-1-oxopropyl]amino]-1-phenylethyl]amino]-4-oxo-, [1R -[1α[R*(R*)], 2β]]-((-)-isomer)] | 0.29 nM |  | 
CC1CCCCC1OC(=O)NC(C)(Cc1c[nH]c2ccccc12)C(=O)NC(CNC(=O)C=CC(=O)O)Cc1ccccc1 (single isomer, unassigned) [Example 43, 2-Butenoic acid, 4-[[2-[[3-)1H-indol-3-yl)-2-methyl-2-[[[(2-methyl-1-cyclohexyl)oxy]carbonyl]amino]-1-oxopropyl]amino]-3-phenylpropyl]amino]-4-oxo-[IR[1α[R*(S*)], 2β]]-((-)-isomer)] | 4 nM |  | 
CC(Cc1c[nH]c2ccccc12)(NC(=O)OC1CCCCC1Cl)C(=O)NC(COC(=O)CCC(=O)O)Cc1ccccc1 (centres unmarked) [Example 4, 2-[[2-[[[2-chlorocyclohexyl)oxy]-carbonyl]amino]-3-(1H-indol-3-yl)-2-methyl-1-oxo-propyl]amino]-3-phenylpropyl butanedioate] | 170 nM |  | > 20 mg/kg
C[C@](Cc1c[nH]c2ccccc12)(NC(=O)OC1CC2CC3CC(C2)C1C3)C(=O)N[C@H](CO)Cc1ccccc1 (some centres unmarked) [Example 11] |  | 54 nM | 
CC(Cc1c[nH]c2ccccc12)(NC(=O)OC1CC2CC3CC(C2)C1C3)C(=O)NC(COC(=O)CCC(=O)O)Cc1ccccc1 (centres unmarked) [Example 12, 2-[3-1H-indol-3-yl)-2-methyl-2-[[[(octahydro-2,5-methano-1H-inden-7-yl)oxy]carbonyl]amino]-1-oxopropyl]-3-phenylpropyl butanedioate] | 85 nM |  | 
CC(Cc1c[nH]c2ccccc12)(NC(=O)OC1C2CC3CC(C2)CC1C3)C(=O)NC(CO)Cc1ccccc1 (stereo not drawn) [Example 15, [R-(R*,S*)]-Tricyclo[3.3,1.1^3,7]dec-2-yl-[2-[[1-(hydroxymethyl)-2-phenylethyl]amino]-1-(1H-indol-3-ylmethyl)-1-methyl-2-oxoethyl]carbamate] | 26 nM |  | 15.7 mg/kg
CC(Cc1c[nH]c2ccccc12)(NC(=O)OC1C2CC3CC(C2)CC1C3)C(=O)NCC(OC(=O)CCC(=O)O)c1ccccc1 (centres unmarked) [Example 17, 2-[[3-(1H-indol-3-yl)-2-methyl-1-oxo-2-[[(tricyclo-[3.3.1.1.^3,7]dec-2-yloxy)carbonyl]amino]propyl]amino]-1-phenylethyl butanedioate] | 63 nM |  | 13.1 mg/kg
CC(Cc1c[nH]c2ccccc12)(NS(=O)(=O)CC12CCC(CC1=O)C2(C)C)C(=O)NC(CO)Cc1ccccc1 (stereo not drawn) [Example 18, α-[[[(7,7-dimethyl-2-oxobicyclo[2.2.1]-hept-1-yl)-methyl]sulfonyl]amino]-N-[1-(hydroxymethyl)-2-phenylethyl]-α-methyl-1H-indole-3-propanamide-(Trpcenter R, phenylalanylcenter S)] | 21000 nM |  | 
CC(Cc1c[nH]c2ccccc12)(NC(=O)OC1C2CC3CC(C2)CC1C3)C(=O)NC(CNC(=O)CCC(=O)O)Cc1ccccc1 (stereo not drawn) [Example 19, [R-(R*,S*)]-4-[[2-[[3-(1H-indol-3-yl)-2-methyl-1-oxo-2-[[(tricyclo[3.3.1.1^3,7]dec-2-yloxy)carbonyl]amino]propyl]amino]-3-phenylpropyl]amino]-4-oxobutanoic acid] | 14 nM |  | 
CC(Cc1c[nH]c2ccccc12)(NC(=O)OC1C2CC3CC(C2)CC1C3)C(=O)NC(CNC(=O)C=CC(=O)O)Cc1ccccc1 (stereo not drawn) [Example 19A, [R-(R*,S*)]-4-[[2-(1H-Indol-3-yl)-2-methyl-1-oxo-2-[[tricyclo[3.3.1.1^3,7]dec-2-yloxylcarbonyl]amino]propyl]-amino]-3-phenylpropyl]amino]-4-oxo-2-butenoic acid] | 0.08 nM |  | 
CC(Cc1c[nH]c2ccccc12)(NC(=O)OC1C2CC3CC(C2)CC1C3)C(=O)NCC(NC(=O)CCc1nn[nH]n1)c1ccccc1 (stereo not drawn) [Example 33, Tricyclo[3.3.1.1^3,7]dec-2-yl [R,(R*,S*]-[1-(1H-indol-3-ylmethyl)-1-methyl-2-oxo-2-[[2-[[1-oxo-3-(1H -tetrazol-5-yl)propyl]amino]-2-phenylethyl]-amino]ethyl]carbamic acid ester] | 6 nM |  | 
